Experiment: in vitro "sniff test" model of deodorant effectiveness using human sweat incubated at 37° C.
Conditions: average odor intensity rating, scores from 1=weak odor to 8=very strong odor, single ingredient
Procedure: The deodorant effectiveness of different KH2PO4/MgO mixtures at different molar ratios was studied in vitro in a “sniff test” model using human sweat incubated at 37° C.

| SMILES | Odor intensity |
| --- | --- |
| O=P([O-])(O)O.[K+] [KH2PO4, potassium dihydrogen phosphate] | 8 |
| [O]=[Mg] [MgO, magnesium oxide] | 1 |

From patent publication US20240041715A1, “PROCESS FOR TREATING HUMAN PERSPIRATION AND BODY ODORS USING MAGNESIUM OXIDE AND A PHOSPHATE SALT” (L' OREAL, priority 2020, published 2024)
